Here are results for 52 compounds from PubChem BioAssay AID179 (DTP/NCI, 2004).

Each structure is given as a SMILES string. Activity calls are given as the source filed them.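 The calls were made as follows: active = compounds giving half or more protection of infected cells from virus-caused growth loss, again on retest; inactive = the rest.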

The subject of this assay is CEM cells HIV-1 protection, formazan growth assay. Nature of the assay: NCI AIDS Antiviral Assay. The settings on record: for IC50: measured here: growth of uninfected CEM cells. The gist of the method: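 Screen of anti-HIV-1 activity in human CEM cells using a formazan-based growth measurement at five drug concentrations. Hits with 50% or greater protection were repeated, and confirmation required reproducible complete protection.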

As usually defined, the EC50 is the concentration needed to bring the measured effect to its halfway point. The term IC50 denotes the concentration at which inhibition is half-maximal. Higher therefore signals a need for much substance. Consider `CC1=CC(=O)/C(=C/N2C(=O)CNC2=S)C(=O)O1`, for which the EC50 was over 200 µM and the IC50 was over 200 µM.

Consider `CN(CCN(C)CC(=O)O)CC(=O)O`, for which the EC50 was over 617 µM and the IC50 was 550 µM.

`COc1c2occc2c(N=Cc2ccc([N+](=O)[O-])cc2)c2ccc(=O)oc12`: the EC50 is over 34.7 µM and the IC50 was over 34.7 µM.

For `NC(=O)N/N=C\CC(O)(C(F)(F)Cl)C(F)(F)Cl`, the EC50 is over 200 µM and the IC50 was over 200 µM.

`O=c1cc(Nc2cccc(O)c2)[nH]c(=O)[nH]1`: the outcome was inactive.

Take `COC(=O)[C@]1(C)CCCC2(C)C1CC[C@H]1C=C(C)[C@H]3CCC12C3` (stereo partly specified): the EC50 was over 112 µM and the concentration for half-maximal inhibition (IC50) was over 112 µM.

For the compound `O=C(O)[C@@H](NS(=O)(=O)c1ccc(F)cc1)c1ccccc1`, the outcome was inactive.

For the compound `CC1(C)O[C@H]2OC3CCC(=O)CC3(O)[C@H]2O1` (stereo partly specified), the result was inactive.

With `Fc1ccc(NC2=NCCN=C(Nc3ccc(F)cc3)SS2)cc1`, the EC50 is over 200 µM and the IC50 came to 24.5 µM.

For `OCc1ccc2c(c1)CC1(C2)Cc2cc3c(cc2C1O)CCC3` (stereo unspecified), the EC50 is over 200 µM and the IC50 turned out to be 1.82 µM.

With `COc1ccc(C(OCC2OC(n3ccc(NC(=O)c4ccccc4)nc3=O)CC2OP2(=S)SCCS2)(c2ccccc2)c2ccc(OC)cc2)cc1` (stereo unspecified), the EC50 is over 100 µM and the IC50 came out at 44.7 µM.

With `COc1ccc(S(=O)(=O)N/N=C/c2cc(I)cc([N+](=O)[O-])c2O)cc1OC`, the EC50 was over 355 µM and the half-inhibitory concentration (IC50) was 60.3 µM.

Turning to `O=C1C(=Cc2ccc(Cl)c(Cl)c2)C([O-])=C([P+](c2ccccc2)(c2ccccc2)c2ccccc2)C([O-])=C1[P+](c1ccccc1)(c1ccccc1)c1ccccc1`, the EC50 is over 100 µM and the IC50 was 1.23 µM.

Take `Clc1cc(Cc2cc(Cl)c(Cl)c3c2OCOC3)c2c(c1Cl)COCO2`: the result was inactive.

Take `CC1=CC(=O)/C(=C/N2C(=S)NC(=O)/C2=C/c2cccc([N+](=O)[O-])c2)C(=O)O1`: the EC50 was over 200 µM and the IC50 was found to be 138 µM.

For `CCOC(=O)C12CN(C34CC5CC(CC(C5)C3)C4)CC(C(=O)OCC)(C1=O)C(c1ccccc1)OC2c1ccccc1` (stereo unspecified), the EC50 was over 30.9 µM and the IC50 was determined as 13.5 µM.

In the case of `N#Cc1c(=O)c2ccccc2n2ccccc12`, the EC50 is over 100 µM and the IC50 is over 100 µM.

For `COc1ccc(COCC[C@H](C)OC2OC(CO[Si](C)(C)C(C)(C)C)C(OC(=O)CCCN=[N+]=[N-])C(OC(=O)CCCN=[N+]=[N-])C2OC(=O)CCCN=[N+]=[N-])cc1` (stereo partly specified), the EC50 was over 200 µM and the IC50 was found to be 26.3 µM.

With `N#Cc1c(N=Cc2ccccc2)c(C(=O)Nc2ccccc2)n2c1CCCC2`, the EC50 was over 200 µM and the IC50 is over 200 µM.

With `[N-]=[N+]=NC[C@H]1OCO[C@H](CN=[N+]=[N-])[C@H]2OCCOCCOc3ccccc3OCCOCCO[C@@H]21`, the EC50 was over 200 µM and the IC50 was over 200 µM.

`CCC1(CC)COP(=O)(Oc2ccccc2)OC1`: the EC50 was over 200 µM and the IC50 was over 200 µM.

As for `O=c1oc2ccccc2c(O)c1C(c1ccc2c(c1)OCO2)c1c(O)c2ccccc2oc1=O`, the EC50 is over 200 µM and the IC50 was determined as 75.9 µM.

Consider `CCOC(=O)C1Cc2c([nH]c(=O)[nH]c2=O)OC1c1ccc([N+](=O)[O-])cc1` (stereo unspecified), for which the EC50 is over 363 µM and the IC50 was over 363 µM.

As to `Cc1ccc(S(=O)(=O)N/N=C(/CC(=O)c2c(C)n([O-])c3ccccc3[n+]2=O)C(=O)Nc2ccc(C)c(C)c2)cc1`, the EC50 was over 6.46 µM and the IC50 is over 6.46 µM.

Consider `CCn1ncc2c(=O)n3ncn(-c4ccc(Br)cc4)c3nc21`, for which the outcome was inactive.

For `COc1ccc(-c2oc3c(Cl)cc(Cl)cc3c(=O)c2O)cc1OC`, the EC50 is over 200 µM and the IC50 was over 200 µM.

With `CC(C)c1nc2cc(C(F)(F)F)ccc2[nH]c1=O`, the EC50 is over 200 µM and the IC50 amounted to 120 µM.

Regarding `O=C(O)CCCC#CCCCC(=O)O`, the EC50 is over 200 µM and the IC50 is over 200 µM.

With `FC(F)(F)C[P+](c1ccccc1)(c1ccccc1)c1ccccc1`, the EC50 is over 200 µM and the 50% inhibitory concentration (IC50) came out at 46.8 µM.

In the case of `Cc1ccccc1NC(=O)CC(=O)N1N=C(N(CCC#N)c2ccccc2Cl)CC1c1ccccc1` (stereo unspecified), the EC50 was over 263 µM and the IC50 is over 263 µM.

In the case of `COc1cc(/C=C/C(=O)CC(=O)/C=C/c2ccc(O)c(O)c2)ccc1O`, the EC50 is over 200 µM and the 50% inhibitory concentration (IC50) worked out at 6.76 µM.

For `CC(=O)c1ccc(NC(=O)C(=O)Nn2c(=S)[nH]c3ccccc3c2=O)cc1`, the EC50 is over 93.3 µM and the IC50 is over 93.3 µM.

As to `COc1ccc2c(c1)C=C(C(C)(C)C)NS2(=O)=O`, the EC50 is over 97.7 µM and the IC50 is over 97.7 µM.

Regarding `O=S(=O)(c1ccccc1)C1CN2OC1(S(=O)(=O)c1ccccc1)CC2c1ccc(Br)cc1` (stereo unspecified), the outcome was inactive.

Consider `COc1ccc(C(CC(=O)c2cccs2)C(=O)c2cccs2)cc1` (stereo unspecified), for which the EC50 is over 200 µM and the IC50 was over 200 µM.

Turning to `COc1ccc2c(c1)-c1[nH]c3ccccc3c1CC2`, the EC50 is over 200 µM and the half-inhibitory concentration (IC50) came out at 12 µM.

In the case of `O=C1NN(C2=NNC3(C(=O)N2)c2ccccc2-c2ccccc23)C(c2ccccc2)=N/C1=C/c1ccc(Cl)cc1`, the EC50 was over 100 µM and the IC50 came out at 70.8 µM.

As for `O=C(C=P(c1ccccc1)(c1ccccc1)c1ccccc1)c1ccccc1-c1ccccc1C(=O)C=P(c1ccccc1)(c1ccccc1)c1ccccc1`, the EC50 is over 1 µM and the half-inhibitory concentration (IC50) stood at 0.107 µM.

For `CCC12CCCN(Cc3ccccc3)C1c1c(n(C)c3ccccc13)C(C(=O)OC)C2` (stereo unspecified), the EC50 was over 32.4 µM and the IC50 was over 32.4 µM.

With `CCC1(OC(=O)CN2CCN(CCO)CC2)C(=O)OCc2c1cc1n(c2=O)Cc2cc3ccccc3nc2-1` (stereo unspecified), the EC50 is over 10 µM and the half-inhibitory concentration (IC50) is 0.0912 µM.

In the case of `CCC(CON(C)c1ccccc1)(SC)SC`, the EC50 is over 200 µM and the IC50 was found to be 105 µM.

`CN(C)c1ccc(/C=C(\C#N)c2c(Cl)cccc2Cl)cc1`: the EC50 was over 200 µM and the IC50 was 4.57 µM.

Consider `Cc1ccc2c(c1)N=Cc1ccccc1O2`, for which the EC50 is over 174 µM and the IC50 is 10.7 µM.

`c1csc(-c2sc(-c3ccsc3)cc2Cc2ccsc2)c1`: the result was inactive.

In the case of `N#CC1=C2Oc3ccccc3N2C(c2ccc(Cl)cc2)C(C#N)=C1N` (stereo unspecified), the EC50 was over 200 µM and the IC50 worked out at 36.3 µM.

`NC1CCCC2CCC(N)C12` (stereo unspecified): the EC50 was over 200 µM and the IC50 was found to be 9.55 µM.

`Clc1ccc(-c2c(C3=NCCCN3)nnn2-c2ccc(Cl)cc2)cc1`: the EC50 is over 490 µM and the IC50 is 30.9 µM.

`Cc1cc(O)c2c(=O)c3ccccc3[nH]c2c1`: the EC50 was over 200 µM and the IC50 worked out at 40.7 µM.

Take `S=C(SSSC(=S)N(C1CCCCC1)C1CCCCC1)N(C1CCCCC1)C1CCCCC1`: the result was inactive.

Take `NC(C/C=C/P(=O)(O)O)C(=O)O` (stereo unspecified): the EC50 was over 200 µM and the IC50 stood at 155 µM.

Regarding `C1#CCSCC#CCSC1`, the EC50 was over 42.7 µM and the IC50 is over 42.7 µM.

As for `c1ccc2[nH]c(-c3cscn3)nc2c1`, the EC50 is over 200 µM and the IC50 is over 200 µM.
